Source: US20030134859A1 (SANKYO COMPANY, LIMITED, priority 2000, published 2003)
Where a name gives a salt, the structure may show the parent alone.

system: TNF-α production; assay: Inhibitory activity against cytokine (TNF-α) production in LPS-stimulated RAW264.7 cells; type: cell-based, mouse; details: Mus musculus, RAW264.7, 15 h, 1 μM test compound, LPS 10 ng/mL
Outline: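 Mouse RAW264.7 macrophages (5,000 cells/well) stimulated with 10 ng/mL LPS (final) and treated with test compound at 1 μM final for 15 h at 37 °C. Supernatant mouse TNF-α measured by ELISA; % inhibition = 100−(A−B)/(C−B)×100, using unstimulated and LPS-only controls.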

Which inhibition at 1 µM does the source give for `O=C(Nc1ccc(-c2ccccc2)cc1)c1cc([N+](=O)[O-])ccc1Cl` [Example 2, N-(4-Phenylphenyl)-(2-chloro-5-nitrophenyl)carboxamide] here?
The inhibition at 1 µM was 24.5%.

Which inhibition at 1 µM does the source give for `Cc1cnc(NC(=O)c2cc([N+](=O)[O-])ccc2Cl)s1` [Example 4, N-(5-Methylthiazol-2-yl)-(2-chloro-5-nitrophenyl)carboxamide] here?
The inhibition at 1 µM was 18.5%.

With `O=C(Nc1ccc(-c2ccccn2)cc1)c1cc([N+](=O)[O-])ccc1Cl` [Example 8, N-[4-(2-Pyridyl)phenyl]-(2-chloro-5-nitrophenyl)carboxamide] as the molecule, how does the inhibition at 1 µM read?
The inhibition at 1 µM was 18.9%.

Which inhibition at 1 µM does the source give for `Cc1ccccc1-c1csc(NC(=O)c2cc([N+](=O)[O-])ccc2Cl)n1` [Example 39, N-[4-(2-Methylphenyl)thiazol-2-yl]-(2-chloro-5-nitrophenyl)carboxamide] here?
Its inhibition at 1 µM is 29.8%.

`CCc1ccc(-c2csc(NC(=O)c3cc([N+](=O)[O-])ccc3Cl)n2)cc1` [Example 44, N-[4-(4-Ethylphenyl)thiazol-2-yl]-(2-chloro-5-nitrophenyl)carboxamide] was tested. Which inhibition at 1 µM did it give?
Its inhibition at 1 µM is 18%.

Which inhibition at 1 µM does the source give for `O=C(Nc1c(Cl)ncnc1Cl)c1cc([N+](=O)[O-])ccc1Cl` [Example 81, N-(4,6-Dichloropyrimidin-5-yl)-(2-chloro-5-nitrophenyl)carboxamide] here?
The inhibition at 1 µM was 32%.

For `O=C(Nc1nc(-c2ccc(F)c(F)c2)cs1)c1cc([N+](=O)[O-])ccc1Cl` [Example 111, N-[4-(3,4-Difluorophenyl)thiazol-2-yl]-(2-chloro-5-nitrophenyl)carboxamide], which inhibition at 1 µM is on record?
The inhibition at 1 µM was 28.7%.

How did the inhibition at 1 µM turn out when `CCCCCCNc1ccc(-c2ccc(NC(=O)c3cc([N+](=O)[O-])ccc3Cl)cc2)cc1` [Example 195, N-[4-[4-(N-Hexylamino)phenyl]phenyl]-(2-chloro-5-nitrophenyl)carboxamide] was run?
The inhibition at 1 µM was 16.1%.

How did the inhibition at 1 µM turn out when `CCCCCCN(C)c1ccc(-c2ccc(NC(=O)c3cc([N+](=O)[O-])ccc3Cl)cc2)cc1` [Example 196, N-[4-[4-(N-Hexyl-N-methylamino)phenyl]phenyl]-(2-chloro-5-nitrophenyl)carboxamide] was run?
The inhibition at 1 µM was 15.3%.

`CCCCCCN(CC)c1ccc(-c2ccc(NC(=O)c3cc([N+](=O)[O-])ccc3Cl)cc2)cc1` [Example 197, N-[4-[4-(N-Ethyl-N-hexylamino)phenyl]phenyl]-(2-chloro-5-nitrophenyl)carboxamide] was tested. Which inhibition at 1 µM did it give?
The inhibition at 1 µM was 21.6%.

`CCCCCCCCNc1ccc(-c2ccc(NC(=O)c3cc([N+](=O)[O-])ccc3Cl)cc2)cc1` [Example 219, N-[4-[4-(N-Octylamino)phenyl]phenyl]-(2-chloro-5-nitrophenyl)carboxamide] was tested. Which inhibition at 1 µM did it give?
The inhibition at 1 µM was 21.7%.

Which inhibition at 1 µM does the source give for `CCCCCCCCN(CCCCCC)c1ccc(-c2ccc(NC(=O)c3cc([N+](=O)[O-])ccc3Cl)cc2)cc1` [Example 220, N-[4-[4-(N-Hexyl-N-octylamino)phenyl]phenyl]-(2-chloro-5-nitrophenyl)carboxamide mono-hydrochloride] here?
The inhibition at 1 µM was 16.3%.

For `CCCCCCCCN(CCCC)c1ccc(-c2ccc(NC(=O)c3cc([N+](=O)[O-])ccc3Cl)cc2)cc1.Cl` [Example 223, N-[4-[4-(N-Butyl-N-octylamino)phenyl]phenyl]-(2-chloro-5-nitrophenyl)carboxamide mono-hydrochloride], which inhibition at 1 µM is on record?
The inhibition at 1 µM was 28.2%.

How did the inhibition at 1 µM turn out when `CCCCCCCCN(CCC)c1ccc(-c2ccc(NC(=O)c3cc([N+](=O)[O-])ccc3Cl)cc2)cc1` [Example 224, N-[4-[4-(N-Octyl-N-propylamino)phenyl]phenyl]-(2-chloro-5-nitrophenyl)carboxamide] was run?
Its inhibition at 1 µM is 22.4%.

With `CC(C)(C)OC(=O)Nc1cccc(-c2csc(NC(=O)c3cc([N+](=O)[O-])ccc3Cl)n2)c1` [Example 234, N-[4-(3-tert-Butoxycarbonylaminophenyl)thiazol-2-yl]-(2-chloro-5-nitrophenyl)carboxamide] as the molecule, how does the inhibition at 1 µM read?
The inhibition at 1 µM was 32.5%.

For `CS(=O)(=O)N(c1ccc(-c2ccc(NC(=O)c3cc([N+](=O)[O-])ccc3Cl)cc2)cc1)S(C)(=O)=O` [Example 235, N-[4-[4-(N,N-Dimethanesulfonylamino)phenyl]phenyl]-(2-chloro-5-nitrophenyl)carboxamide], which inhibition at 1 µM is on record?
The inhibition at 1 µM was 40.2%.

With `O=C(Nc1ccc(CCNC(=S)Nc2cccnc2)cc1)c1cc([N+](=O)[O-])ccc1Cl` [Example 273, N-[4-[2-(Pyridin-3-yl)aminothiocarbonylaminoethyl]phenyl]-(2-chloro-5-nitrophenyl)carboxamide] as the molecule, how does the inhibition at 1 µM read?
Its inhibition at 1 µM is 19.9%.

system: Rat white adipocytes; assay: Stimulation of differentiation of the adipocytes (Oil Red O); type: cell-based; details: 100 nM test compound; 5 days; Oil Red O ABS550; control = 100%, blank = 0%; Table 7
Outline: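 Oil Red O lipid staining, absorbance 550 nm after DMSO extraction, quantified differentiation of rat white adipocytes exposed 5 days to compound (final 100 nM, 0.1% DMSO) in differentiation medium. Percent differentiation normalised between cell-free blank (0%) and DMSO control (100%).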

Which “Rate of Differentiation (%)” value does the source give for `Cc1cc(NS(=O)(=O)c2ccc(NC(=O)c3cc([N+](=O)[O-])ccc3Cl)cc2)no1` [Example 99] here?
Its value is 119.0%.

Which “Rate of Differentiation (%)” value does the source give for “N-[4-(Pyrrolidinylsulfonyl)phenyl]-(2-chloro-5-nitrophenyl)carboxamide [Example 152]” here?
The value was 112.7%.

same assay, conditions: Rattus norvegicus, Adipocyte, 120 h, 100 nM test compound; 5 days; Oil Red O ABS550; control = 100%, blank = 0%; Table 7; read-out: Rate of Differentiation (%)

With `Cc1ccc(NC(=O)c2cc([N+](=O)[O-])ccc2Cl)cc1` [Example 1, N-(4-Methylphenyl)-(2-chloro-5-nitrophenyl)carboxamide] as the molecule, how does the activity at 0.1 µM read?
The activity at 0.1 µM was 121%.

For `O=C(Nc1ccc(-c2ccccc2)cc1)c1cc([N+](=O)[O-])ccc1Cl` [Example 2, N-(4-Phenylphenyl)-(2-chloro-5-nitrophenyl)carboxamide], which activity at 0.1 µM is on record?
The activity at 0.1 µM was 127%.

For `Cc1cnc(NC(=O)c2cc([N+](=O)[O-])ccc2Cl)s1` [Example 4, N-(5-Methylthiazol-2-yl)-(2-chloro-5-nitrophenyl)carboxamide], which activity at 0.1 µM is on record?
The activity at 0.1 µM was 128%.

With `O=C(Nc1ccccc1-c1ccccc1)c1cc([N+](=O)[O-])ccc1Cl` [Example 7, N-(2-Phenylphenyl)-(2-chloro-5-nitrophenyl)carboxamide] as the molecule, how does the activity at 0.1 µM read?
The activity at 0.1 µM was 120%.

`O=C(Nc1ccc(-c2ccccn2)cc1)c1cc([N+](=O)[O-])ccc1Cl` [Example 8, N-[4-(2-Pyridyl)phenyl]-(2-chloro-5-nitrophenyl)carboxamide] was tested. Which activity at 0.1 µM did it give?
Its activity at 0.1 µM is 114%.

Which activity at 0.1 µM does the source give for `O=C(Nc1cccc(NS(=O)(=O)c2ccccc2)c1)c1cc([N+](=O)[O-])ccc1Cl` [Example 30, N-(3-Benzensulfonylaminophenyl)-(2-chloro-5-nitrophenyl)carboxamide] here?
Its activity at 0.1 µM is 139%.

How did the activity at 0.1 µM turn out when `O=C(Nc1nc(-c2ccccc2)cs1)c1cc([N+](=O)[O-])ccc1Cl` [Example 35, N-(4-Phenylthiazol-2-yl)-(2-chloro-5-nitrophenyl)carboxamide] was run?
The activity at 0.1 µM was 122%.

For `O=C(Nc1nc(-c2ccccn2)cs1)c1cc([N+](=O)[O-])ccc1Cl` [Example 38, N-[4-(2-Pyridyl)thiazol-2-yl)-(2-chloro-5-nitrophenyl)carboxamide], which activity at 0.1 µM is on record?
Its activity at 0.1 µM is 137%.

For `Cc1cccc(NC(=O)c2cc([N+](=O)[O-])ccc2Cl)n1` [Example 51, N-(6-Methylpyridin-2-yl)-(2-chloro-5-nitrophenyl)carboxamide], which activity at 0.1 µM is on record?
Its activity at 0.1 µM is 129%.

Which activity at 0.1 µM does the source give for `Cc1ccnc(NC(=O)c2cc([N+](=O)[O-])ccc2Cl)n1` [Example 65, N-(4-Methylpyrimidin-2-yl)-(2-chloro-5-nitrophenyl)carboxamide] here?
Its activity at 0.1 µM is 112%.

For `COC(=O)c1sccc1NC(=O)c1cc([N+](=O)[O-])ccc1Cl` [Example 66, N-(2-Methoxycarbonylthiophen-3-yl)-(2-chloro-5-nitrophenyl)carboxamide], which activity at 0.1 µM is on record?
The activity at 0.1 µM was 113%.

How did the activity at 0.1 µM turn out when `Cn1c(NC(=O)c2cc([N+](=O)[O-])ccc2Cl)nc2ccccc21` [Example 82, N-(1-Methylbenzimidazol-2-yl)-(2-chloro-5-nitrophenyl)carboxamide] was run?
Its activity at 0.1 µM is 114%.

How did the activity at 0.1 µM turn out when `O=C(Nc1nncs1)c1cc([N+](=O)[O-])ccc1Cl` [Example 85, N-(1,3,4-Thiadiazol-2-yl)-(2-chloro-5-nitrophenyl)carboxamide] was run?
The activity at 0.1 µM was 125%.

With `O=C(Nc1ccc(S(=O)(=O)Nc2nccs2)cc1)c1cc([N+](=O)[O-])ccc1Cl` [Example 96, N-[4-(Thiazol-2-yl)aminosulfonyl]phenyl-(2-chloro-5-nitrophenyl)carboxamide] as the molecule, how does the activity at 0.1 µM read?
The activity at 0.1 µM was 123%.

`O=C(Nc1ccc(S(=O)(=O)Nc2ccc(Cl)nn2)cc1)c1cc([N+](=O)[O-])ccc1Cl` [Example 102, N-[4-[(6-Chloropyridazin-3-yl)aminosulfonyl]phenyl]-(2-chloro-5-nitrophenyl)carboxamide] was tested. Which activity at 0.1 µM did it give?
The activity at 0.1 µM was 114%.

With `N=C(N)NS(=O)(=O)c1ccc(NC(=O)c2cc([N+](=O)[O-])ccc2Cl)cc1` [Example 106, N-[4-(Amidinoaminosulfonyl)phenyl]-(2-chloro-5-nitrophenyl)carboxamide] as the molecule, how does the activity at 0.1 µM read?
Its activity at 0.1 µM is 113%.

How did the activity at 0.1 µM turn out when `Cc1ccc(S(=O)(=O)Nc2ccc(NC(=O)c3cc([N+](=O)[O-])ccc3Cl)cc2)cc1` [Example 116, N-[4-(4-Toluenesulfonylamino)phenyl]-(2-chloro-5-nitrophenyl)carboxamide] was run?
Its activity at 0.1 µM is 124%.

`CC(=O)Nc1ccc(NC(=O)c2cc([N+](=O)[O-])ccc2Cl)cc1` [Example 117, N-(4-Acetylaminophenyl)-(2-chloro-5-nitrophenyl)carboxamide] was tested. Which activity at 0.1 µM did it give?
The activity at 0.1 µM was 122%.

How did the activity at 0.1 µM turn out when `O=C(Nc1ccc(NC(=O)c2cc([N+](=O)[O-])ccc2Cl)cc1)c1ccccc1` [Example 119, N-(4-Benzoylaminophenyl)-(2-chloro-5-nitrophenyl)carboxamide] was run?
The activity at 0.1 µM was 135%.

How did the activity at 0.1 µM turn out when `O=C(Nc1ccc(NC(=O)c2cc([N+](=O)[O-])ccc2Cl)cc1)c1ccncc1` [Example 125, N-[4-(Pyridin-4-ylcarbonylamino)phenyl]-(2-chloro-5-nitrophenyl)carboxamide] was run?
The activity at 0.1 µM was 132%.

With `CN(C)c1cccc(NC(=O)c2cc([N+](=O)[O-])ccc2Cl)c1` [Example 176, N-(3-Dimethylamino)phenyl-(2-chloro-5-nitrophenyl)carboxamide] as the molecule, how does the activity at 0.1 µM read?
Its activity at 0.1 µM is 118%.

`O=C(Nc1ccc(S(=O)(=O)Nc2ccc(N3CCOCC3)cc2)cc1)c1cc([N+](=O)[O-])ccc1Cl` [Example 179, N-[4-[4-(Morpholin-4-yl)phenyl]aminosulfonyl]phenyl-(2-chloro-5-nitrophenyl)carboxamide] was tested. Which activity at 0.1 µM did it give?
Its activity at 0.1 µM is 128%.

For `CCCNc1ccc(NC(=O)c2cc([N+](=O)[O-])ccc2Cl)cc1` [Example 181, N-[4-(N-Propylamino)phenyl]-(2-chloro-5-nitrophenyl)carboxamide], which activity at 0.1 µM is on record?
Its activity at 0.1 µM is 128%.
